Assay results published in ChEMBL document CHEMBL1125401, “CoMFA analysis of the interactions of antipicornavirus compounds in the binding pocket of human rhinovirus-14” (J Med Chem, 1992).
≈ marks a conversion by molar mass, not a printed value.

Tested on: rhinovirus B14
Test: Compound was evaluated for inhibitory effect against human Rhinovirus-14
Assay type: functional
Settings: not given

Structure (SMILES)	MIC [µM]
OCCOCOCc1cc(CCCCCOc2c(Cl)cc(C3=NCCO3)cc2Cl)on1	0.09 (≈ 0.0426 µg/mL)

Same assay, conditions: Rhinovirus B; read-out: MIC

Structure (SMILES)	MIC [µM]
Cc1cc(CCCCCCCOc2ccc(C3=NC(C)CO3)cc2)on1 (stereo not given)	0.05 (≈ 0.0178 µg/mL)
Cc1cc(CCCCCOc2ccc(-c3nc(C)c(C)o3)cc2)on1	0.14 (≈ 0.0477 µg/mL)
CCC1COC(c2ccc(OCCCCCCCc3cc(C)no3)cc2)=N1 (stereo not given)	0.03 (≈ 0.0111 µg/mL)
Cc1cc(CCCCCOc2ccc(C3=NCCO3)cc2)on1	0.51 (≈ 0.16 µg/mL)
Cc1cc(CCCCCOc2ccc(C3=NCCO3)cc2Cl)on1	2.41 (≈ 0.841 µg/mL)
Cc1cc(CCCCCCCOc2ccc(C3=NC(C)(C)CO3)cc2)on1	0.16 (≈ 0.0593 µg/mL)

More lines, now with the values ahead:

MIC [µM]	Structure (SMILES)
0.06 (≈ 0.0267 µg/mL)	Cc1cc(-c2nnn(C)n2)cc(C)c1OCCCCCc1cc(COCOCCO)no1
0.06 (≈ 0.0284 µg/mL)	OCCOCOCc1cc(CCCCCOc2c(Cl)cc(C3=NCCO3)cc2Cl)on1
1.5 (≈ 0.575 µg/mL)	Cc1cc(CCCCCOc2c(Cl)cc(C3=NCCO3)cc2Cl)on1 [WIN-54954]
